Assay type in all cases: cell-based
One test concerns OVISE cell line. Briefly: Drug and growth-inhibitor assay (Cell Titer-Glo cell viability), OVISE. Conditions: for effect on cell growth: concentration 0.1 g/ml to […], alone. The method, then: (§1) Cysplatin (CDDP, Randa, molecular weight, 300.5 Da) was purchased from Nippon Kayaku (Tokyo, Japan). Propargylglycine (PPG, molecular weight, 113.11 Da), a specific inhibitor of CTH, was purchased from Sigma-Aldrich. OVISE, OVTOKO, and OVCAR-3 were seeded into opaque-walled 96-well plates in a concentration of 1×10^4 cells/well on the day before adding the drugs. CDDP solution of various concentrations (0, 0.02, 0.1, 0.5, 2.5, and 12.5 µg/ml) was then added to the wells in duplicate. In the following, PPG dissolved in water ([…]) was added. 96 hours after addition of the drugs, cell viability was quantified using the Cell Titer-Glo Luminescent Cell Viability Assay (Promega, Madison, Wis.). Luminescence activity was measured with a GloMAx96 Microplate Luminometer (Promega).
(§2) The protein expression of CTH was examined in 9 ovarian cancer cell lines by western blot analysis. Among all the ovarian cell lines, CTH expression was only observed in OVISE and OVTOKO (FIG. 5E). […] There was a positive correlation between protein expression of CTH and IC50 of CDDP in ovarian cancer cell lines (FIG. 5 F-H). The IC50s of propargylglycine, a specific inhibitor of CTH, were also analyzed in these cell lines. Propargylglycine at a concentration ranging from […] to 10 µg/ml had no effect on cell growth of these cell lines. Thus, combination of CDDP and propargylglycine (FIG. 5 I-K) was also examined.

The subject of a further test is OVTOKO cell line. Description: Drug and growth-inhibitor assay (Cell Titer-Glo cell viability), OVTOKO. The conditions noted are these: for effect on cell growth: concentration 0.1 g/ml to […], alone. The method, then: as §1, §2
The next test deals with OVCAR3 cell line. Description: Drug and growth-inhibitor assay (Cell Titer-Glo cell viability), OVCAR3. Conditions: concentration 0.1 g/ml to […], alone. The method, then: as §1
The protein expression of CTH was examined in 9 ovarian cancer cell lines by western blot analysis. Among all the ovarian cell lines, CTH expression was only observed in OVISE and OVTOKO (FIG. 5E). […] There was a positive correlation between protein expression of CTH and IC50 of CDDP in ovarian cancer cell lines (FIG. 5 F-H). The IC50s of propargylglycine, a specific inhibitor of CTH, were also analyzed in these cell lines. Propargylglycine at a concentration ranging from […] to 10 µg/ml had no effect on cell growth of these cell lines. […]
Background: ATP-based viability assays read luminescence as a measure of living cells.

[1] abbreviates: […] propargylglycine in culture medium, versus medium without PPG.

In the case of `[NH2][Pt]([NH2])([Cl])[Cl]` [CDDP, Cysplatin], the “change of IC50 of CDDP in combination with propargylglycine” value with OVISE cell line (setting [1]) and in the test on OVTOKO cell line (setting [1]) was “significantly decreased” in each case.

As to `C#CCC(N)C(=O)O` (centres unmarked) [Propargylglycine], the “effect on cell growth” value was “no effect” in the test on OVISE cell line; “did not affect cell growth” with OVISE cell line (listed as PPG); “no effect” with OVTOKO cell line; “did not affect cell growth” in the test with OVTOKO cell line (listed as PPG); “no effect” in the test on OVCAR3 cell line; “did not affect cell growth” in the test on OVCAR3 cell line (listed as PPG).

Source of the values: patent US20120058204A1, “USE OF OVER EXPRESSION OF CYSTATHIONINE GAMMA LYASE AS A PROGNOSTIC, DIAGNOSTIC AND THERAPEUTIC TARGET FOR CANCER” (NATIONAL CANCER CENTER RESEARCH INSTITUTE, priority 2010, published 2012).
